Measurements as given in patent US20100239652A1, “IMMUNOLIPOSOMES FOR TREATMENT OF CANCER” (UNIVERSITATSSPITAL BASEL, priority 2008, published 2010).
Converted amounts (≈) assume the structure as drawn.

Columns and labels:
HT-29 RDB = experiment: Cytotoxicity study, MTT staining; assay type: cell-based, human
Protocol: (§1) Specific cytotoxicity of EGFR-targeted immunoliposomes containing doxorubicin was evaluated in target cells plated at a density of 8,000 cells per well in 96-well plates and allowed to grow overnight. Immunoliposomes or control treatments were applied for 2 h at 37° C., followed by washing with PBS and re-adding growth media. Cells were further incubated at 37 DC for 3 days and analyzed for cell viability using 3-(4,5-dimethylthiazol-2-yl)-2,5-diphenyl tetrazolium bromide (MTT) staining (41). For the cytotoxicity studies using the efflux pump inhibitor verapamil, this compound was added to the media at a concentration of 100 μM during the complete experiment.

HT-29 WT = experiment: Cytotoxicity study, MTT staining; assay type: cell-based, human
Protocol: as §1

MDA-MB-231 Vb100 = experiment: Cytotoxicity study, MTT staining; assay type: cell-based, human
Protocol: as §1

MDA-MB-231/mdr cells = experiment: Accumulation of doxorubicin in the cytoplasma and nuclei; assay type: cell-based, human; conditions: multidrug resistant tumor cells
Protocol: For comparative accumulation studies, tumor cells (HT-29, HT-29 ROB, MDA-MB-231 or MDA-MB-231 Vb100) have been plated at a density of 200,000 cells per well in 12-well plates. Free doxorubicin, non-targeted liposomal doxorubicin (PLD) and immunoliposomal doxorubicin have been applied at a doxorubicin concentration of 3 μg/ml for 2 h at 37° C., followed by 2 washing rounds with media. Verapamil was added to the experiment in a concentration of 0, 10 or 100 μM. After another 2 h incubation without any treatment cells were analyzed as follows:
After removing the media, cells were washed once with 1 ml of culture medium containing FCS, followed by 1 ml of PBS with calcium and magnesium at room temperature (RT) for 3 min. […] For nuclear accumulation of doxorubicin the pellet with the nuclei was washed twice with 500 μl PBS containing 1% C100T and using subsequent centrifugation as described before. After careful removing of the final supernatant, doxorubicin from the pellets was extracted overnight by 400 μl 50% acid methanol.
From both cytoplasmic and nuclear extracts, 300 μl were transferred into a 96-well plate and measured by a “SpertraMax Gemini Fluorimeter” (Molecular Devices).

[1] = system: MDA-MB-231 wild type xenograft; experiment: Tumor xenograft model, wild type; assay type: in vivo; conditions: for antitumor effect (tumor growth): i.v. 10 mg doxorubicin/kg once weekly for 3 weeks, total 30 mg dox/kg, compared to saline
Protocol: (§2) Efficacy for non-targeted liposomes versus anti-EGFR immunoliposomes were studied in the MDA-MB-231 wild type and resistant breast cancer xenograft tumor model. Swiss nu/nu mice (5-6 weeks; Charles River, France) were injected subcutaneously (s.c.) with EGFR-overexpressing MDA-MB-231 tumor cells (1×10^7 cells, wild type or resistant) into the back of the animal. […] Free drug was injected on the same schedule as liposomes or immunoliposomes intravenously at their MTD of 30 mg dox/kg for doxorubicin. In control groups, saline was administered intravenously at the same injection volume and schedule.
(§3) Tumor growth was monitored for a period of 55-100 days post tumor implantation. Mice were weighted and examined for toxicity three times a week. Tumor measurements were performed 2-3 times weekly using a caliper, and tumor volumes were calculated using the equation: (length × width^2)/2.
In the wild-type MDA-MB-231 xenograft model lacking mdr features, anti-EGFR immunoliposome-dox was administered i.v. at a total dose of 30 mg dox/kg divided into three weekly doses of 10 mg/kg. […] Control treatments included: saline; free doxorubicin and non-targeted liposomal doxorubicin (commercial pegylated liposomal doxorubicin; PLD) at the same dose and schedule as immunoliposomes.
(§4) In addition, a multivariate (rank) test was performed based on the sums of ranks for each mouse. Tumor size at each time point after last treatment was ranked across all mice for that day and the ranks were summed. The sum of the ranks was compared in each case for two treatments by a 2-sample t-test (42).

[2] = system: MDA-MB-231 Vb100 xenograft; experiment: Tumor xenograft model, multi-drug resistant; assay type: in vivo; conditions: i.v. 10 mg doxorubicin/kg once weekly for 3 weeks, total 30 mg dox/kg, compared to saline
Protocol: as §2, §3
Comparators included saline, free doxorubicin and non-targeted liposomal doxorubicin (commercial pegylated liposomal doxorubicin; PLD) at the same dose and schedule as immunoliposomes.
as §4

## COc1cccc2c1C(=O)c1c(O)c3c(c(O)c1C2=O)C[C@@](O)(C(=O)CO)C[C@@H]3O[C@H]1C[C@H](N)[C@H](O)[C@H](C)O1 [free dox, doxorubicin]
HT-29 RDB; HT-29/mdr cells, summary in description
  IC50: 6.0 μg dox/ml
HT-29 RDB; treatment for 2 h, MTT after 3 days, multi-drug resistant sub cell line
  IC50: 9.5 µg/mL (≈ 17.5 µM)
HT-29 WT; non-resistant HT-29 cells, summary in description
  IC50: 0.36 μg dox/ml
HT-29 WT; treatment for 2 h, MTT after 3 days
  IC50: 0.3 µg/mL (≈ 0.552 µM)
MDA-MB-231 Vb100; highly drug resistant, 2 h treatment, MTT after 3 days
  IC50: 130 µg/mL (≈ 239 µM)
MDA-MB-231 Vb100; in the presence of verapamil (100 μM)
  IC50: 0.9 µg/mL
MDA-MB-231/mdr cells
  intracellular distribution: efficiently pumped out
[1]
  antitumor effect (tumor growth): some tumor growth inhibition
[2]
  antitumor effect (tumor growth): failed to show any activity
[2]; listed as free doxorubicin
  antitumor effect (tumor growth): did not show any tumor growth inhibition

B1: EMD72000-ILs-dox (conjugate, chains of the INN, looked up)
VH: QVQLVQSGAEVKKPGASVKVSCKASGYTFTSHWMHWVRQAPGQGLEWIGEFNPSNGRTNYNEKFKSKATMTVDTSTNTAYMELSSLRSEDTAVYYCASRDYDYDGRYFDYWGQGTLVTVSS
VL: DIQMTQSPSSLSASVGDRVTITCSASSSVTYMYWYQQKPGKAPKLLIYDTSNLASGVPSRFSGSGSGTDYTFTISSLQPEDIATYYCQQWSSHIFTFGQGTKVEIK
modifications: doxorubicin-loaded immunoliposomes
[1]; after day 77 until end of observation (day 100)
  tumor regrowth during follow-up: did not show growth activity
[1]
  antitumor effect (tumor growth): substantial tumor regressions
[2]
  antitumor effect (tumor growth): substantial tumor regressions
